Consider six compounds from paper PMC12707362, “Targeting Aurora Kinases as Essential Cell‐Cycle Regulators to Deliver Multi‐Stage Antimalarials Against Plasmodium Falciparum” (Angewandte Chemie (International Ed. in English), 2025).

Data set [1] concerns the target T1, recombinant PfPKG (Plasmodium falciparum, UniProt Q8I719).
T1 construct: Full-length PfPKG (PF3D7_1436600); His tag (N); made in house; host or cells: E. coli (first-named host, read as 'respectively')
As to the kind of experiment: ADP-Glo kinase assay, PfPKG. Format: biochemical. An excerpt:
(§1) Full-length PfPKG (PF3D7_1436600)^[19] and PvPI4Kβ (PVX_098050)^[20] recombinant proteins were expressed in E. coli and baculovirus-insect cell expression systems. The kinase domain of PfCLK3 (PF3D7_1114700, Gln317 to Ser694) was expressed in E. coli Rosetta™(DE3)pLysS cells (kind gift from Rafael M. Couñago, CQMED, University of Campinas). Briefly, the N-terminal His-tagged kinases were purified using immobilized metal affinity chromatography, followed by anion exchange chromatography in the case of PfPKG, and size exclusion chromatography. Dose-response kinase inhibition assays were carried out using the ADP-Glo kinase assay kit^[21], with 1 nM PfPKG, 10 μM ATP, 20 μM […]-NH2, 1% (v/v) DMSO and inhibitor in PKG assay buffer (25 mM HEPES pH 7.4, 0.1 mg/mL BSA, 0.01% (v/v) Triton-X 100, 20 mM MgCl2, 2 mM DTT, 10 μM cGMP); or 6 nM PvPI4Kβ, 10 μM ATP, 0.1 mg/ml L-alpha-phosphatidylinositol, 1% (v/v) DMSO and inhibitor in PI4Kβ assay buffer (25 mM HEPES pH 7.4, 100 mM NaCl, 3 mM MgCl2, 1 mM DTT, 0.025 mg/ml BSA, 0.2% (v/v) Triton-X-100); or 15 nM PfCLK3, 10 μM ATP, 20 μM myelin basic protein, 1% (v/v) DMSO and inhibitor in assay buffer (50 mM HEPES pH 7.4, 0.1 mg/mL BSA, 0.01% (v/v) Triton-X 100, 20 mM MgCl2, 2 mM DTT). […] Mean IC50 values were calculated from two independent experiments, each with technical duplicates.

Data set [2] is described as follows: Cytotoxicity counter-screening (MTT), CHO. The following applies: Chinese hamster. As for the experimental part: (§2) HepG2 and CHO cells were maintained at 37 °C, under a humidified atmosphere of 5% CO2, in DMEM high glucose media (Gibco) supplemented with 10% heat-inactivated FBS and 1% (v/v) Penicillin-Streptomycin antibiotics. […] The supernatant was discarded, and the cell pellet was resuspended in 1 mL DMEM media for cell counting by Trypan Blue. To determine the toxicity, cells were resuspended and seeded at a concentration of 1x10^4 cells/well in a 96-well plate and incubated for 24 h^[9,10]. Cells were treated in duplicate with a 10-fold serial dilution starting at 100 ug/mL of inhibitor in new media. After 48 h incubation, the viable cells were measured using the MTT tetrazolium reduction assay, where sterile 25 µL of a 5 mg/mL MTT was added to each well and incubated for 4 h before the […] formazan crystals were dissolved with 100 µL DMSO (Merck) per well. The absorbance, a measure of intracellular reduction of MTT, was measured at 540 nm (Multiskan GO). Emetine (50 µM) was included as a positive drug control, and the background was subtracted from all data before being normalised to the untreated^[9,10].
For orientation: Counterscreens check selectivity or assay interference.

The test system of data set [3] is late-stage (stage IV/V) gametocytes, P. falciparum 3D7elo1-pfs16-CBG99. The experiment in a line: Luciferase reporter assay, late-stage gametocytes. Format: cell-based. Conditions: Plasmodium falciparum, 48 h, read-out: Pf Late stage gametocyte %inhibition @ 5 µM. As for the experimental part: (§3) P. falciparum drug sensitive NF54 (PfNF54) and drug-resistant Dd2 (PfDd2, chloroquine, pyrimethamine and mefloquine resistant) strains were cultured in vitro in human O^+/A^+ erythrocytes (5% hematocrit) in complete medium at 2–5% parasitemia, 37 °C, shaking at 60 rpm under hypoxic conditions (90% N2, 5% O2 and 5% CO2). Immature and mature gametocytes were produced from P. falciparum 3D7elo1-pfs16-CBG99 (kind gift from Pietro Alano, ISS, Italy) ^[1] as described^[2,3] by simultaneously applying nutrient starvation and decreasing hematocrit to induce >97% ring-stage ABS parasites (0.5% parasitemia, 6% hematocrit). Gametocytogenesis was followed with daily media changes (including glucose) and ABS parasites removed with 50 mM N-acetylglucosamine (day 1–4 for stage II/III; days 3–7 for stage IV/V).
(§4) All inhibitors were dissolved in dimethyl sulfoxide (DMSO). Antiplasmodium activity of selected anti-cancer inhibitors was determined on P. falciparum NF54 and Dd2 strains, measuring SYBR Green I fluorescence (485 nm excitation, 538 nm emission) as an indicator of proliferation^[4]. Ring-stage ABS parasites (1% parasitemia, 1% hematocrit) were treated with compounds for 96 h at 37 °C with chloroquine disulphate (0.5 μM) as positive drug control. The activity of the inhibitors was tested against immature (>95% stage II/III) and late-stage (>90% stage IV/V) gametocytes using a luciferase reporter assay on 3D7elo1-pfs16-CBG99 ^[1]. […] Luciferase activity was determined using a non-lysing D-luciferin substrate (1 mM in 0.1 M citrate buffer, pH 5.5, 100 μL) and bioluminescence was detected with a GloMax® - Multi Detection System with Instinct® software.
For orientation: A reporter such as luciferase makes a cellular process visible.

Data set [4] concerns immature (stage II/III) gametocytes, P. falciparum 3D7elo1-pfs16-CBG99. The experiment in a line: Luciferase reporter assay, immature gametocytes. Format: cell-based, Plasmodium falciparum. Conditions: 48 h; for inhibition at 5 µM: Plasmodium falciparum, read-out: Pf Early stage gametocyte %inhibition @ 5 µM. Here is the method:
as §3, §4

The subject of data set [5] is multidrug-resistant PfDd2 ABS parasites. As to the kind of experiment: SYBR Green I proliferation assay, PfDd2 asexual blood stages. Type of data set: cell-based. Conditions: Plasmodium falciparum, DD2, read-out: Pf Dd2 ABS IC50. Here is the method:
(B) Antiplasmodial activity of nine anticancer aurora kinase inhibitors (selected based on their PfNF54 ABS activity) against P. falciparum multidrug-resistant ABS parasites (PfDd2 and PfK1). (C) Kinobead competitive inhibition data.
as §3, §4

Data set [6] can be described thus: Cytotoxicity counter-screening (MTT), HepG2. Conditions: human, HepG2 CC50, 48 h, MTT. As for the experimental part:
as §2

The target of data set [7] is recombinant PvPI4Kβ (Plasmodium vivax, UniProt A5KB26). As to the kind of experiment: ADP-Glo kinase assay, PvPI4Kβ. Type of data set: biochemical.
Description: as §1
A general note: In ADP-Glo the light output rises with the ADP produced.

Where [8] appears, read: 10 µM ATP, read-out: IC50 PvPI4Kβ.

Each structure is given as a SMILES string. Read-outs that look alike come from different tables or passages of the source.

recombinant PvPI4Kβ, sequence (A5KB26 1-1525): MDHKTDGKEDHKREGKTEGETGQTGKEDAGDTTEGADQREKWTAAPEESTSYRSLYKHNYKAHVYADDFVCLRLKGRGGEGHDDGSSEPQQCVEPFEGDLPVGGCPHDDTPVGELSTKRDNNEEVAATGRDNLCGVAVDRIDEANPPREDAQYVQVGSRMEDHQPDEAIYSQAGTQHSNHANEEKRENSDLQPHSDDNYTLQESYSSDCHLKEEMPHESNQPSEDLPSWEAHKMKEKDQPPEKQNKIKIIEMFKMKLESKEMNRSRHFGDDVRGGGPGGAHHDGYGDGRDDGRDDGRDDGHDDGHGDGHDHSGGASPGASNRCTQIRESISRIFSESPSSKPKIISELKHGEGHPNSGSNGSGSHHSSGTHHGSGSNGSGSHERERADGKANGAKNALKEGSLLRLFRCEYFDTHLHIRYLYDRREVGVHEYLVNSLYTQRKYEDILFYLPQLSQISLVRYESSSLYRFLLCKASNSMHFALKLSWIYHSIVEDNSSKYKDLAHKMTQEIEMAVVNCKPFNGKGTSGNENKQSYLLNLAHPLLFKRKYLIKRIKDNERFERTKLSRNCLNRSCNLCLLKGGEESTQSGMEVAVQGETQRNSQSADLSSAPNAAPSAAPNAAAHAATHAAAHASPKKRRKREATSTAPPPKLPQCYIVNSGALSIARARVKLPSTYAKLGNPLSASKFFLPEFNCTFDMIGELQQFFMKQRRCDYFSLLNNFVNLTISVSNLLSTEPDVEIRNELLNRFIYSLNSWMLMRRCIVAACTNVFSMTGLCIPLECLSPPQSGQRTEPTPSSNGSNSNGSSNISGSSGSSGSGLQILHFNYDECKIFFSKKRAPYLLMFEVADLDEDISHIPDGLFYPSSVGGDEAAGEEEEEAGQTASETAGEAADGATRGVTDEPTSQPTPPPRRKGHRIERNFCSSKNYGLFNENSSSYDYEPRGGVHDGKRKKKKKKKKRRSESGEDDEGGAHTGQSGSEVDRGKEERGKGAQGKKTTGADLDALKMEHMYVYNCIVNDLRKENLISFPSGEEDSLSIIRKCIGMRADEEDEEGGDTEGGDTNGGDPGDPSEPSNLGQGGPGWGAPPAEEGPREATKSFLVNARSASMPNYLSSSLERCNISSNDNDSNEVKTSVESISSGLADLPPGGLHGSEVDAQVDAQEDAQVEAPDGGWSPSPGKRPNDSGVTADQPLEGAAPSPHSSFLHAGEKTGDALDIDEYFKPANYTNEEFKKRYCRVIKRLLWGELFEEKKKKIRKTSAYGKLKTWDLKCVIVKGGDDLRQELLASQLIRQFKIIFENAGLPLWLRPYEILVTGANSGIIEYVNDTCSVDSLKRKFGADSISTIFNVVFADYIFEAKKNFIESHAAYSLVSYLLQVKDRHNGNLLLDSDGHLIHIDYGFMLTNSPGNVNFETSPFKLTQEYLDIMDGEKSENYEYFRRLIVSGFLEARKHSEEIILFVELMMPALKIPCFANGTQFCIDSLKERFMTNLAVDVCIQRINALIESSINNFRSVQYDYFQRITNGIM
T1 sequence (Q8I719 whole entry): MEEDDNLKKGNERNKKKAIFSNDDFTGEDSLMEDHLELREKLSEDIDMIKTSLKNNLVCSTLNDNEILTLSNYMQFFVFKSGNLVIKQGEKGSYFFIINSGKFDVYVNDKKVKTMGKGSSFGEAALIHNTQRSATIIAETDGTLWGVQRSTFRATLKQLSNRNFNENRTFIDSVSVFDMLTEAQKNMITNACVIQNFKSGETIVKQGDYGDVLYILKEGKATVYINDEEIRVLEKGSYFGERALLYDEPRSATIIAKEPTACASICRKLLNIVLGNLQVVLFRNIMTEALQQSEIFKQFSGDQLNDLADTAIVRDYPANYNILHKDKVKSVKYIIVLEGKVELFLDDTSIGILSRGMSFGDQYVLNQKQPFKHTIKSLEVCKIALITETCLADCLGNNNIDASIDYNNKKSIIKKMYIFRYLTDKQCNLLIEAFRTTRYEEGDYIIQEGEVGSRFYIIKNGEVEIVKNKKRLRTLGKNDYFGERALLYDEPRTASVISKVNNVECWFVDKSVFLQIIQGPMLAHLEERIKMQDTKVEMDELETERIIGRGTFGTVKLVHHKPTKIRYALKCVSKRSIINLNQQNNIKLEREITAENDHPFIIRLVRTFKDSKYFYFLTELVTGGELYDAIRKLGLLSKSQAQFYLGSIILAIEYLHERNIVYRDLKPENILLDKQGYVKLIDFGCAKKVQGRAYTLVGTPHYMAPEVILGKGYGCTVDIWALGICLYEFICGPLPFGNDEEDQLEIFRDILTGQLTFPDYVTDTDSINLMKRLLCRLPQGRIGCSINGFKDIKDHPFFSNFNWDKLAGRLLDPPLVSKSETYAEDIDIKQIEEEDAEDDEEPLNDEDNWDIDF

A word on the IC50: it is the concentration at which inhibition is half-maximal. What is called CC50 is the concentration that lowers cell viability or growth by half. The low end stands for harm at low concentration, the high end for better tolerance by the cells. Usually inhibition stands for the drop in the measured response relative to a control, in per cent. As for `COc1cc(N2CCC(N3CCN(C)CC3)CC2)ccc1Nc1ncc(Cl)c(Nc2ccccc2S(=O)(=O)C(C)C)n1` [TAE684, NVP-TAE684], the IC50 in data set [1] is 2 µM; in data set [5], 0.227 µM; in data set [7] (setting [8]) it was greater than 10 µM. Moreover, the figures for the CC50 at 48 h in data set [2] and in data set [6] were 2 µM and 8.8 µM, respectively. Besides, the inhibition at 5 µM was 50.8% in data set [3] and roughly 70% in data set [4]. Also, the “Pf Early stage gametocyte %inhibition @ 5 µM” value in data set [4] was 65,4 ± 1,7%.

Regarding `O=C(Nc1cccc(Nc2nccc(Nc3cccc(C(F)(F)F)c3)n2)c1)C1CC1` [Aki III, Aurora kinase inhibitor III], the IC50 in data set [1] (10 µM ATP, read-out: IC50 PfPKG) was 2.7 µM; in data set [5] it was 1.6 µM; in data set [7], greater than 10 µM. The CC50 at 48 h in data set [2] (CHO cells) is 2.4 µM; in data set [6] (HepG2 cells), 18.4 µM. The inhibition at 5 µM amounted to 3.5% in data set [3] and 27.7% in data set [4].

Take `COc1cc2c(Nc3ccc(NC(=O)c4ccccc4)cc3)ncnc2cc1OCCCN1CCOCC1` [ZM-39, ZM-447439]: the results for the IC50 in data set [1], in data set [5] and in data set [7] (setting [8]) were greater than 10 µM, 0.374 µM and greater than 10 µM, respectively. The CC50 at 48 h in data set [2] (CHO cells) and in data set [6] (HepG2 cells) was greater than 15 µM in each case. The inhibition at 5 µM was found to be 21.5% in data set [3] and 32.7% in data set [4].

As to `CCN(CCO)CCCOc1ccc2c(Nc3cc(CC(=O)Nc4cccc(F)c4)n[nH]3)ncnc2c1` [AZD-1152, AZD-1152-HQPA], the IC50 in data set [1] was greater than 10 µM; in data set [5] it was 0.49 µM; in data set [7] (setting [8]), greater than 10 µM. In addition, the CC50 at 48 h in data set [2] and in data set [6] was greater than 15 µM throughout. Further, the inhibition at 5 µM in data set [3] turned out to be 38.2%; in data set [4], 31.1%.

Regarding `O=C(Nc1c[nH]nc1-c1nc2ccc(CN3CCOCC3)cc2[nH]1)NC1CC1` [AT83, AT9283], the values for the half-maximal inhibitory concentration (IC50) in data set [1], in data set [5] and in data set [7] (setting [8]) were 9.3 µM, 0.105 µM and greater than 10 µM, respectively. The CC50 at 48 h was found to be 4.5 ± 2.1 µM in data set [2] and 12.9 ± 4.5 µM in data set [6]. The inhibition at 5 µM in data set [3] was 48.9%; in data set [4], 53.5%.

With `CCN1CCN(C(=O)Cc2ccc(Nc3ncc(F)c(Nc4ccc(C(=O)Nc5ccccc5Cl)cc4)n3)cc2)CC1` [AAi I, Aurora A Inhibitor I], the results for the IC50 in data set [1], in data set [5] and in data set [7] (setting [8]) were 1.7 µM, 0.903 µM and greater than 10 µM, respectively. In addition, the CC50 at 48 h in data set [2] was 3.6 µM; in data set [6], 5.1 µM. Further, the inhibition at 5 µM in data set [3] was 48.7%; in data set [4], roughly 70%. Further, in data set [4], the “Pf Early stage gametocyte %inhibition @ 5 µM” value is on record as 73,0 ± 3,1%.
